Measurements from patent US20040102454A1, “Phenylahistin and the phenylahistin analogs, a new class of anti-tumor compounds” (priority 1998, published 2004).
Values after ≈ are worked out from the molar mass of the structure shown. Counter-ions that a name gives are not always drawn. Like-named read-outs stand apart in the source and are kept apart here.

How the values were obtained:
[1] = tested on: C. albicans 90028; experiment: Antifungal susceptibility testing, broth dilution (NCCLS M38-A); type: cell-based, Candida albicans
Experimental: (§1) Antifungal susceptibility testing was accomplished according to the methods outlined in the National Committee for Clinical Laboratory Standards, M38-A “Reference Method for Broth Dilution Antifungal Susceptibility Testing of Conidium-Forming Filamentous Fungi; Approved Standard.” This includes testing in RPMI-1640 with glutamine and without bicarbonate, an inoculum size of 0.4-5×10^4, and incubation at 30 or 35° C. for 48 hours. […] Drug concentrations were 0.03-16 μg/ml for the investigational compounds, 0.015-8 μg/ml for itraconazole and griseofulvin.
(§2) The minimum lethal concentration (MLC) was determined by plating […] from the MIC concentration and each concentration above the MIC. […] When a MIC was obtained, a minimum fungicidal concentration (MFC) was determined to assess the fungistatic/fungicidal nature of the compound. […] The compound is scored as fungistatic if the cells are able to resume growth and fungicidal if no regrowth is possible because the compound had killed the organisms.

[2] = tested on: C. albicans 10231; experiment: as above; type: cell-based, Candida albicans
Experimental: as §1, §2

[3] = tested on: microtubules in A549 cells; experiment: Immunofluorescence staining of microtubules; type: cell-based, human; details: 6 hours incubation
Experimental: Immunocytochemical staining was performed using the method described by Yahara, I. et al., Cell (1978) 15, 251-259. A549 cells were cultured on glass coverslips and incubated with the test drug for 6 hours. The cells were then fixed with 3.7% formaldehyde for 30 min, permeabilized with 0.2% Triton X-100 for 5 min, and incubated with a mouse monoclonal antibody against α-tubulin (Calbiochem®, Oncogene Research Products, Cambridge, Mass.), followed by incubation with fluorescein isothiocyanate-conjugated goat anti-mouse IgG from Cosmo Bio Co., (Tokyo, Japan), and the cells were examined under an immunofluorescent microscope.

[4] = tested on: C. glabrata; experiment: Antifungal susceptibility testing, broth dilution (NCCLS M38-A); type: cell-based, Candida glabrata
Experimental: as §1, §2

[5] = tested on: HT-29 human colon tumor; experiment: HT-29 Human Colon Tumor Xenograft Model; type: in vivo, nude mice; details: CPT-11 100 ip qwx3 alone; study 2139
Experimental: Animals used were (exceptions are indicated for individual studies): female nude mice (nu/nu) between 5 and 6 weeks of age (˜20 g, Harlan); group size was 9-10 mice per group unless otherwise indicated. The selected novel compound was administered as monotherapy via the intraperitoneal (i.p.) route at the doses indicated for the individual study; for the combination studies the selected reference chemotherapy agents were injected 15-30 min prior to the compound. Vehicles used in these studies were: 12.5% DMSO, 5% Cremaphor and 82.5% peanut oil for the selected novel compounds; (1:3) Polysorbate 80:13% ethanol for taxotere; […] Saline dilutions are used to achieve the injection concentrations used for the reference compounds. Animals were implanted subcutaneously (s.c.) by trocar with fragments of HT-29 tumors harvested from s.c. growing tumors in nude mice hosts. […] CPT-11 was administered intraperitoneally on days 1, 8 and 15 (qw×3).

[6] = tested on: P388 cells; experiment: P388 proliferation, Alamar Blue assay; type: cell-based, murine
Experimental: For this example, the Alamar Blue™ assay was performed as follows. Exponentially growing P388 cells were seeded into 96-well tissue culture plates (5×10^3 cells/100 μl/well) and cultured in RPMI 1640 medium supplemented with 10% fetal bovine serum for 16 h. Compounds (DMSO solution) were then added to each well at various concentrations, and the cells were cultured for an additional 48 h. Living cells were counted using Alamar Blue™ (BioSource International, Camarillo, Calif.), according to the method of Ahmed, S. A. et al., J. Immunol. Methods, 170, 211 (1994).

[7] = tested on: Microtubule protein from bovine brain; experiment: Microtubule protein polymerization assay (turbidity); type: biochemical
Experimental: Microtubule protein was prepared from bovine brain tissue by two cycles of assembly and disassembly according to the method of Tiwari, S. C. et al. Anal. Biochem, (1993), 215, 96-103. Tubulin was purified from microtubule protein by phosphocellulose chromatography see Algaier, J. et al. Biochim. Biophys. Acta, (1988), 954, 235-43, and tubulin purity was evaluated by polyacrylamide gel electrophoresis, as in Laemmli, U.K., Nature, (1970), […], 680-85. […] Protein concentrations were determined using the Coomassie® Protein Assay Reagent from Pierce (Rockford, Ill.).
Polymerization of microtubule protein was monitored by an increase in turbidity at 37° C. in microtubule assembly buffer containing 100 mM MES, 0.5 mM MgCl2, 1 mM EGTA and 1 mM GTP. See Johnson, K. A. et al., J. Mol. Biol., (1977), 117, 1-31. Polymerization of purified tubulin was measured using the same method except the microtubule assembly buffer contained 4 M glycerol. See Lee, J. C. et al., Biochemistry, (1975), 14, 5183-87. Microtubule protein and tubulin polymerization was initiated by a temperature shift from 0° C. to 37° C. and turbidity was measured on a DU-20 thermocontrolled spectrophotometer from Beckman (Fullerton, Calif.) at 360 nm. Drugs were dissolved in dimethyl sulfoxide (DMSO), which was used in all experiments at a final concentration of 2% (v/v).
For this example, the microtubule protein polymerization assay was performed as follows. Microtubule protein was prepared from bovine brain tissue by two cycles of assembly and disassembly. Polymerization of microtubule protein was monitored by an increase in turbidity at 37° C. in microtubule assembly buffer containing 100 mM MES, 0.5 mM MgCl2, 1 mM EGTA and 1 mM GTP. The polymerization of microtubule protein was initiated by a temperature shift from 0° C. to 37° C. Turbidity was measured on a thermo-controlled spectrophotometer (Beckman DU-20, Fullerton, Calif.) at 360 nm. Compounds were dissolved in DMSO, which was used in all experiments at a final concentration of 2% (v/v).

[8] = tested on: MES-SA DX (Taxol Resistant) human uterine sarcoma tumor cell line; experiment: Drug resistant cell line pair, cytotoxicity; type: cell-based
Description: MES-SA (Taxol Sensitive) and MES-SA DX (Taxol Resistant). This cell line expresses elevated mdr-1 mRNA and P-glycoprotein (an extrusion pump mechanism). Pretreatment with cyclosporin-A (CsA) blocks P-glycoprotein and reinstates activity in the resistant cell line for those compounds for which the resistance is due to elevated P-glycoprotein.

[9] = means (±SEM) of three experiments (Table 9), read-out: IC50 P388 proliferation
[10] = microtubule protein 1.5 mg/mL (Table 9), read-out: IC50 Microtubule Protein polymerization
[11] = microtubule protein 1.5 mg/ml (Table 4), read-out: IC50 for Microtubule Protein Polymerization

## COc1cc2c(c(OC)c1OC)-c1ccc(OC)c(=O)cc1[C@@H](NC(C)=O)CC2 [colchicine]
[1]; Candida albicans, 90028
  MIC: > 128 µg/mL
[2]; Candida albicans, 10231
  MIC: > 128 µg/mL
[3]
  microtubule structure (anti α-tubulin staining): staining profile similar to that of (−)-PLH-treated cells
[4]; Nakaseomyces glabratus
  MIC: > 128 µg/mL

## C[C@@H]1[C@H](O)[C@@H](C)/C=C/C=C/C=C/C=C/C=C/C=C/C=C/[C@H](O[C@@H]2O[C@H](C)[C@@H](O)[C@H](N)[C@@H]2O)C[C@@H]2O[C@](O)(C[C@@H](O)C[C@@H](O)[C@H](O)CC[C@@H](O)C[C@@H](O)CC(=O)O[C@H]1C)C[C@H](O)[C@H]2C(=O)O [amphotericin B]
[1]; C. albicans 90028
  MFC: 0.5 µg/mL (≈ 0.541 µM)
[1]; C. albicans 90028, 80% reduction in turbidity
  MIC: 0.5 µg/mL (≈ 0.541 µM)
[2]; C. albicans 10231
  MFC: 0.5 µg/mL (≈ 0.541 µM)
[2]; C. albicans 10231, 80% reduction in turbidity
  MIC: 0.5 µg/mL (≈ 0.541 µM)
[4]; C. glabrata
  MFC: 1 µg/mL (≈ 1.08 µM)
[4]; C. glabrata, 80% reduction in turbidity
  MIC: 1 µg/mL (≈ 1.08 µM)

## CCc1c2c(nc3ccc(OC(=O)N4CCC(N5CCCCC5)CC4)cc13)-c1cc3c(c(=O)n1C2)COC(=O)[C@]3(O)CC [CPT-11, irinotecan hydrochloride, reference compound]
[5]
  Chemotherapeutic Agent Result TGI %: 32.7%

## C=CC(C)(C)c1c(C=C2C(=O)N(C)[C@@H](Cc3ccccc3)C(=O)N2C)ncn1C [Compound 15, (−)-Cyclo-N, N′-dimethyl-[(N^im-methyl-5-(1,1-dimethyl-2-propenyl))dehydro-histidinyl-L-phenylalanine]]
[6]; [9]
  IC50: 160 µM
[7]; [10]
  IC50: > 200 µM

## C=CC(C)(C)c1c(/C=C2\NC(=O)[C@H](Cc3ccccc3)NC2=O)ncn1C [Compound 14, (−)-Cyclo-[(N^im-methyl-5-(1,-dimethyl-2-propenyl))dehydrohistidinyl-L-phenylalanine]]
[6]; Mus musculus, P388, means (±SEM) of three experiments (Table 9), read-out: IC50 P388 proliferation
  IC50: 0.95 µM
[7]
  times less active than (−)-phenylahistin: about 5 times
[7]; [10]
  IC50: 100 µM

## COc1cccc2c1C(=O)c1c(O)c3c(c(O)c1C2=O)C[C@@](O)(C(=O)CO)C[C@@H]3O[C@H]1C[C@H](N)[C@H](O)[C@H](C)O1 [doxorubicin, reference compound]
[8]
  reduced susceptibility of the MES-SA DX cell line: 34 fold

## Cc1[nH]cnc1C=C1NC(=O)[C@H](Cc2ccccc2)NC1=O [Compound 20, Cyclo-[(5-methyl)dehydrohistidinyl-L-phenylalanine]]
[6]; [9]
  IC50: 15 µM
[7]; 200 μM
  inhibition percentage at 200 μM, microtubule protein polymerization: 9%
[7]; [10]
  IC50: > 200 µM

## O=C1CNC(=O)C(Cc2ccccc2)N1 [Compound 7, Cyclo-[glycinyl-L-phenylalanine]]
[6]; Mus musculus, P388, Alamar Blue assay (Table 4), read-out: IC50 for P388 Proliferation
  IC50: > 200 µM
[7]; [11]
  IC50: > 200 µM

## (−)-Cyclo-[5-(1,1-dimethylpropyl)histidinyl-L-phenylalanine] [Compound 5]
[6]; Alamar Blue assay (Table 4), read-out: IC50 for P388 Proliferation
  IC50: > 200 µM
[6]; [9]
  IC50: > 200 µM
[7]; [10]
  IC50: > 200 µM
[7]; [11]
  IC50: > 200 µM
